Laboratory results as given in patent US20260102359A1, “COMBINATION TREATMENT OF DERMAL AND TRANSDERMAL FIBROTIC DISEASES, DISORDERS AND ASSOCIATED PAIN AND INFLAMMATION” (ERESINA, LLC, priority 2022, published 2026).
Structures can show the parent of a compound that is named as a salt.

Each compound was assayed on hDMFa myofibroblast cells.

Row | SMILES | Compound Myofibroblast Cytotoxicity Activity
1 | C[C@H]1[C@H](OC(=O)CCC(=O)O)O[C@@H]2O[C@@]3(C)CC[C@H]4[C@H](C)CC[C@@H]1[C@@]24OO3 [Cmpd 132, Artesunate] | +++
2 | CC[C@@H]1/C=C(\C)C[C@H](C)C[C@H](OC)[C@H]2O[C@@](O)(C(=O)C(=O)N3CCCC[C@H]3C(=O)O[C@H](/C(C)=C/[C@@H]3CC[C@@H](O)[C@H](OC)C3)[C@H](C)[C@@H](O)CC1=O)[C@H](C)C[C@@H]2OC [Cmpd 133, Ascomycin(FK 520)] | +++
3 | COc1ccc(CCN2CCC(Nc3nc4ccccc4n3Cc3ccc(F)cc3)CC2)cc1 [Cmpd 136, Astemizole] | ++++
4 | COC(=O)N[C@H](C(=O)N[C@@H](Cc1ccccc1)[C@@H](O)CN(Cc1ccc(-c2ccccn2)cc1)NC(=O)[C@@H](NC(=O)OC)C(C)(C)C)C(C)(C)C [Cmpd 138, Atazanavir] | ++
5 | CC(C)c1c(C(=O)Nc2ccccc2)c(-c2ccccc2)c(-c2ccc(F)cc2)n1CC[C@@H](O)C[C@@H](O)CC(=O)[O-].CC(C)c1c(C(=O)Nc2ccccc2)c(-c2ccccc2)c(-c2ccc(F)cc2)n1CC[C@@H](O)C[C@@H](O)CC(=O)[O-].[Ca+2] [Cmpd 140, Atorvastatin Calcium] | ++++
6 | COc1ccc(CC2c3cc(OC)c(OC)cc3CC[N+]2(C)CCC(=O)OCCCCCOC(=O)CC[N+]2(C)CCc3cc(OC)c(OC)cc3C2Cc2ccc(OC)c(OC)c2)cc1OC (stereo not drawn) [Cmpd 142, Atracurium Besylate] | +++
7 | CCOc1nc2cccc(C(=O)OCc3oc(=O)oc3C)c2n1Cc1ccc(-c2ccccc2-c2noc(=O)[nH]2)cc1 [Cmpd 149, Azilsartan Medoxomil] | ++
8 | Cc1ccc(NC(=O)c2ccc(CN3CC[C@H](N(C)C)C3)c(C(F)(F)F)c2)cc1Nc1nccc(-c2cncnc2)n1 [Cmpd 152, Bafetinib (INNO-406)] | +++
9 | CNC1CCCN(c2c(F)cc3c(=O)c(C(=O)O)cn(C4CC4)c3c2OC)C1 (stereo not drawn) [Cmpd 154, Balofloxacin Dihydrate] | ++
10 | COC(=O)[C@]12CCC(C)(C)C[C@H]1[C@H]1C(=O)C=C3[C@@]4(C)C=C(C#N)C(=O)C(C)(C)[C@@H]4CC[C@@]3(C)[C@]1(C)CC2 [Cmpd 156, Bardoxolone methyl] | +++++
11 | CC(C)(C)c1ccc(S(=O)(=O)/C=C/C#N)cc1 [Cmpd 157, Bay 11-7085] | +++++
12 | Cc1ccc(S(=O)(=O)/C=C/C#N)cc1 [Cmpd 158, Bay 11-7821(BAY 11-7082)] | +++++
13 | Cc1c(-c2ccc(O)cc2)n(Cc2ccc(OCCN3CCCCCC3)cc2)c2ccc(O)cc12 [Cmpd 159, Bazedoxifene acetate] | ++++
14 | COC(=O)C1=C(C)NC(C)=C(C(=O)OC2CCCN(Cc3ccccc3)C2)C1c1cccc([N+](=O)[O-])c1 (stereo not drawn) [Cmpd 161, Benidipine HCl] | ++
15 | NC(CO)C(=O)NNCc1ccc(O)c(O)c1O (stereo not drawn) [Cmpd 162, Benserazide HCl] | ++
16 | Cl.N=C(N)c1ccccc1 [Cmpd 163, Benzamidine HCl] | +++
17 | CCc1oc2ccccc2c1C(=O)c1cc(Br)c(O)c(Br)c1 [Cmpd 164, Benzbromarone] | ++++
18 | CCOC(=O)c1ccc(N)cc1 [Cmpd 166, Benzocaine] | ++
19 | O=C(O)c1ccccc1 [Cmpd 167, Benzoic Acid] | ++
20 | O=C(c1ccccc1)c1ccccc1 [Cmpd 168, Benzophenone] | ++
21 | COc1ccc2cc3[n+](cc2c1OC)CCc1cc2c(cc1-3)OCO2.[Cl-] [Cmpd 172, Berberine hydrochloride] | ++

Row | SMILES | Compound Myofibroblast Cytotoxicity Activity
22 | COc1ccc2cc3[n+](cc2c1OC)CCc1cc2c(cc1-3)OCO2 [Cmpd 173, Berberine Sulfate] | ++
23 | CNCCc1ccccn1.CS(=O)(=O)O.CS(=O)(=O)O [Cmpd 175, Betahistine mesylate] | ++
24 | CCCCC(=O)O[C@]1(C(=O)CO)[C@@H](C)C[C@H]2[C@@H]3CCC4=CC(=O)C=C[C@]4(C)[C@@]3(F)[C@@H](O)C[C@@]21C [Cmpd 176, Betamethasone Valerate] | ++
25 | O=C(O)CCNC(=O)c1ccccc1 [Cmpd 177, Betamipron] | +++++
26 | C=C(c1ccc(C(=O)O)cc1)c1cc2c(cc1C)C(C)(C)CCC2(C)C [Cmpd 178, Bexarotene] | ++++
27 | c1ccc(-c2ccc(C(c3ccccc3)n3ccnc3)cc2)cc1 (stereo not drawn) [Cmpd 182, Bifonazole] | +++
28 | Cc1ccc(-n2nc(C(C)(C)C)cc2NC(=O)Nc2ccc(OCCN3CCOCC3)c3ccccc23)cc1 [Cmpd 183, BIRB 796 (Doramapimod)] | ++
29 | CC[C@H](NC(=O)[C@H](C)NC)C(=O)N1C[C@@H](O)C[C@H]1Cc1c(-c2[nH]c3cc(F)ccc3c2C[C@@H]2C[C@H](O)CN2C(=O)[C@H](CC)NC(=O)[C@H](C)NC)[nH]c2cc(F)ccc12 [Cmpd 184, Birinapant (TL32711)] | ++
30 | CC(C)(c1ccc(O)cc1)c1ccc(O)cc1 [Cmpd 186, Bisphenol A] | ++
31 | CCN1CCN(c2cc(-c3ccc(F)cc3)c3c(n2)CCCCCC3)CC1 [Cmpd 187, Blonanserin] | +++
32 | O=c1ccc2ccc(OCCCCN3CCN(c4cccc5sccc45)CC3)cc2[nH]1 [Cmpd 191, Brexpiprazole] | +++
33 | Oc1c(Br)cc(Br)c2cccnc12 [Cmpd 194, Broxyquinoline] | +++
34 | O=C(O)CCC(=O)O [Cmpd 196, Butane diacid] | ++
35 | CN(Cc1ccc(C(C)(C)C)cc1)Cc1cccc2ccccc12 [Cmpd 197, Butenafine HCl] | +++
36 | Clc1ccc(CCC(Cn2ccnc2)Sc2c(Cl)cccc2Cl)cc1 (stereo not drawn) [Cmpd 198, Butoconazole nitrate] | +++
37 | COc1cc2nccc(Oc3ccc(NC(=O)C4(C(=O)Nc5ccc(F)cc5)CC4)cc3)c2cc1OC.O=C(O)C[C@H](O)C(=O)O [Cmpd 199, Cabozantinib malate (XL184)] | ++
38 | O=C(O)/C=C/c1ccc(O)c(O)c1 [Cmpd 200, Caffeic acid] | +
39 | O=C(/C=C/c1ccc(O)c(O)c1)OCCc1ccccc1 [Cmpd 201] | ++
40 | C=C1CC[C@H](O)C/C1=C/C=C1\CCC[C@]2(C)[C@@H]([C@H](C)CCCC(C)(C)O)CC[C@@H]12 [Cmpd 202, Calcifediol] | +++
41 | C=C1/C(=C\C=C2/CCC[C@]3(C)[C@@H]([C@H](C)/C=C/[C@@H](O)C4CC4)CC[C@@H]23)C[C@@H](O)C[C@@H]1O [Cmpd 203, Calcipotriol] | +++
42 | C=C1/C(=C\C=C2/CCC[C@]3(C)[C@@H]([C@H](C)CCCC(C)(C)O)CC[C@@H]23)C[C@@H](O)C[C@@H]1O [Cmpd 204, Calcitriol] | +++
